# According to US6638542B2, “Reducing appetite in mammals by administering procyanidin and hydroxycitric acid” (Nutricia N.V., priority 2001, dated 2003):
# Assay: Appetite reducing effects of coadministered procyanidin and hydroxycitric acid: voluntary food intake, placebo-controlled cross-over study
# Assay type: in vivo, male Wistar rats
# Conditions: 155 mg hydroxycitric acid per kg rat alone, single intragastric bolus, vs placebo, paired student t, FIG. 2
# Procedure: The appetite suppressive effects of a combination of procyanidin (pine bark extract containing 65 wt. % procyanidin) and hydroxycitric acid (Regulator™ ex HOB Ireland, Dublin, Ireland) was tested in male Wistar rats. In a placebo-controlled cross-over study, either 13 mg procyanidin per kg rat (A), 155 mg hydroxycitric acid per kg rat (B) or 13 mg procyanidin per kg rat and 155 mg hydroxycitric acid per kg rat (C) were administered as a single bolus intragastrically at 30 min before onset of the active (dark) period.
# Subsequently, voluntary food intake was recorded continuously for 48 hours. Following this period, the experiment was repeated as part of the cross-over design (that is, rats which first received the procyanidins now received the placebo and vice versa).
# Results are shown as absolute cumulative food intake after 1,2 and 4 hours (see FIG. 2). Statistical analysis (paired student t) was made of the data.
structure (smiles),measurement,setting,value
O=C(O)CC(O)(C(=O)O)C(O)C(=O)O (centres unmarked) [hydroxycitric acid],"absolute cumulative food intake after 1, 2 and 4 hours",,did not result in a significant decrease
same,"absolute cumulative food intake after 1, 2 and 4 hours",listed as HCA,did not show any significant appetite reducing effect
